Measured values: ChEMBL document CHEMBL1135200, “Inhibition of the U1A-RNA complex by an aminoacridine derivative” (Bioorg Med Chem Lett, 2002)

Legend:
[1] = Ability to inhibit formation of the TatTAR complex by binding to the closing GC or CG base pair and adjacent nucleotides of loops in the TAR RNA.
Nucleic Acid [2] = experiment: Ability to inhibit the […]-RNA complex formation; assay type: nucleic-acid assay
Nucleic Acid [3] = experiment: Ability to inhibit the formation of the U1A-stem loop 2 RNA complex using gel mobility shift assay; assay type: nucleic-acid assay

| IC50 [1] | IC50 (Nucleic Acid [2]) | IC50 (Nucleic Acid [3]) | Structure (SMILES) |
| --- | --- | --- | --- |
| 22 µM | 1 µM | 1 µM | COc1ccc2nc3cc(Cl)ccc3c(NCCCN(CCCN)CCCCN)c2c1 |
| 10 µM | – | 10000 µM | Nc1nc(N)c2c(N)c(N)ccc2n1 |
